# Results from patent US11807647B2, “Crystal form of hepatitis B surface antigen inhibitor and application thereof” (FUJIAN AKEYLINK BIOTECHNOLOGY CO., LTD., priority 2019, dated 2023).
# Legend:
# [1] = Physical stability test of crystal form A as a solid under various temperature, humidity and light conditions; type: physicochemical
# Experimental: 4 samples of crystal form A of the compound of formula (I) were weighed in parallel (about 100 mg each), placed on the bottom of glass sample bottles, and spread out as a thin layer. The bottles were sealed with aluminum foil paper, and some small holes were made on the aluminum foil paper to ensure that the samples could fully contact with ambient air. The prepared 4 samples were placed under a relative humidity of 25° C./92.5%, 60° C., 40° C./75% and light conditions, respectively, to investigate the physical stability of the samples on day 10. In addition, about 100 mg of crystal form A solid of the compound of formula (I) was separately weighed, placed at the bottom of a glass sample bottle, sealed with a screw cap and stored at −20° C. for use as a control sample. On day 10, all samples were taken out, returned to room temperature, and observed for appearance changes, and the crystal forms of the samples were detected by XRPD. By comparing an accelerated sample with the control sample, the physical stability of crystal form A of the compound of formula (I), as a solid, was determined.
# [2] = Stability test of crystal form A as a solid under high temperature and high humidity conditions; type: physicochemical; conditions: 40° C./75% humidity
# Experimental: 2 samples of crystal form A of the compound of formula (I) were weighed in parallel (about 100 mg each), placed on the bottom of glass sample bottles, and spread out as a thin layer. The bottles were sealed with aluminum foil paper, and some small holes were made on the aluminum foil paper to ensure that the samples could fully contact with ambient air. The bottles were placed in a constant temperature and humidity chamber at 40° C./75% humidity. The samples placed under the above-mentioned conditions were sampled and tested on day 5 and day 10. The test results were compared with initial test results on day 0.
# hepatitis B = conditions: woodchuck model, used as a single drug; cited from earlier work
# [3] = tested on: hepatitis B surface antigen (HBsAg); assay: In vitro HBV activity test, hepatitis B virus S antigen by ELISA in HepG2.2.15 cells; type: cell-based
# Experimental: (§1) 1. Cell Lines: HepG2.2.15 Cells
# (§2) 2. Reagents: • Pancreatin (Invitrogen-25300062) • DPBS (Corning-21031CVR) • Dimethyl sulfoxide (Sigma-D2650-100 ML) • High-throughput DNA purification kit (QIAamp 96 DNA Blood Kit, Qiagen-51162) • Quantitative faststart universal probe reagent (FastStart Universal Probe Master, Roche-04914058001) • Hepatitis B surface antigen quantitative detection kit (Autobio, CL 0310) • 3. Consumables and Instruments • 96-well cell culture plate (Corning-3599) • CO2 incubator (HERA-CELL-240) • Optical sealing film (ABI-4311971) • Quantitative PCR 96-well plate (Applied Biosystems-4306737) • Fluorescence quantitative PCR instrument (Applied Biosystems-7500 real time PCR system)
# (§3) 1. HepG2.2.15 cells (4×10^4 cells/well) were seeded to a 96-well plate and incubated overnight at 37° C., 5% CO2.
# 2. […]
# 6.3 Determination of the content of hepatitis B virus S antigen by ELISA involve respectively adding 50 μl of samples and standards to a reaction plate, and then adding 50 μL of enzyme conjugate to each well; shaking same to mix uniformly, and incubating at 37° C. for 60 minutes; washing the plate 5 times with a washing solution, adding 50 μL of luminescent substrate to each well, mixing uniformly, and reacting same in the dark at room temperature for 10 minutes; and finally, detecting chemiluminescence intensity with a microplate reader. […]
# HBV-DNA = assay: In vitro HBV activity test, HBV-DNA by quantitative PCR in HepG2.2.15 cells; type: cell-based, Hepatitis B Virus
# Experimental: as §1, §2, §3
# 2. On day 2, the compound was diluted to a total of 8 concentrations, with a 3-fold gradient dilution. The compounds at different concentrations were added to culture wells in duplicate. The final concentration of dimethyl sulfoxide in the culture medium was 0.5%. 10 μM ETV was used as 100% inhibition control; 0.5% dimethyl sulfoxide was used as a 0% inhibition control.
# 3. On day 5, the culture medium was replaced with a fresh culture medium containing the compound.
# 4. […]
# [4] = 25° C./92.5% relative humidity (open), Day 10
# [5] = 40° C./75% relative humidity (open), Day 10
# [6] = Day 0 (−20° C. storage with seal) (control sample), time point Day 10
structure (smiles),measurement,setting,value
COCCCOc1cc2c(cc1Cl)-c1cc(=O)c(C(=O)O)cn1[C@H](c1cccs1)O2 [crystal form A],Character,[1]; [4],White powder
same,Polymorph,[1]; [4],Polymorph A
same,Purity,[1]; [4],99.80%
same,Character,[1]; [5],White powder
same,Polymorph,[1]; [5],Polymorph A
same,Purity,[1]; [5],99.79%
same,Character,"[1]; 60° C. (open), Day 10",White powder
same,Polymorph,"[1]; 60° C. (open), Day 10",Polymorph A
same,Purity,"[1]; 60° C. (open), Day 10",99.75%
same,Character,[1]; [6],White powder
same,Polymorph,[1]; [6],Polymorph A
same,Purity,[1]; [6],99.79%
same,Character,"[1]; Light, Day 10",White powder
same,Polymorph,"[1]; Light, Day 10",Polymorph A
same,Purity,"[1]; Light, Day 10",99.71%
same,stability (experimental conclusion),"[1]; solid, various temperature, humidity and light conditions, day 10",good stability
same,Appearance,[2]; day 0 (initial),White powder
same,Polymorph,[2]; day 0 (initial),Polymorph A
same,Purity,[2]; day 0 (initial),99.79%
same,Total impurities,[2]; day 0 (initial),0.21%
same,Appearance,[2]; day 5,White powder
same,Polymorph,[2]; day 5,Polymorph A
same,Purity,[2]; day 5,99.79%
same,Total impurities,[2]; day 5,0.21%
same,Appearance,[2]; day 10,White powder
same,Polymorph,[2]; day 10,Polymorph A
same,Purity,[2]; day 10,99.79%
same,Total impurities,[2]; day 10,0.21%
same,stability (experimental conclusion),"[2]; solid, up to day 10",good stability
COCCCOc1cc2c(cc1OC)-c1cc(=O)c(C(=O)O)cn1[C@H](C(C)C)C2 [RG7834],reduction of HBV-DNA,hepatitis B,1.7 Log
same,reduction of surface antigens,hepatitis B,2.57 Log
COCCCOc1cc2c(cc1Cl)-c1cc(=O)c(C(=O)O)cn1[C@H](c1cccs1)O2 [Compound of formula (I)],inhibition of hepatitis B surface antigen (HBsAg) (experimental conclusion),[3]; HepG2.2.15 cells,effectively inhibit
same,EC50,"[3]; Hepatitis B virus, HepG2.2.15, 192 h, read-out: HBsAg EC50",1.54 nM
same,inhibition of HBV-DNA (experimental conclusion),HBV-DNA,effectively inhibit
same,EC50,"HBV-DNA; Hepatitis B virus, 192 h, culture medium collected on day 8",1.13 nM
